Experimental data from EP0468634A1, “The use of macrocyclic aminophosphonic acid complexes as imaging agents” (THE DOW CHEMICAL COMPANY, priority 1990, dated 1992).

Tests used:
[1] = Determination of water proton T1 relaxation time (inversion recovery NMR, 270 MHz); assay type: physicochemical; conditions: deoxygenated, Example 1 complex at 680 µMolar in 20% D₂O (vol/vol)
Procedure: The complex from Example 1 was deoxygenated by bubbling dry nitrogen gas through it for 20 min. The sample was then placed in a 5 mm NMR tube and placed in a 270 MHz spectrometer for determination of the water proton relaxation time.
The NMR experiment used to measure the relaxation time was the standard inversion recovery technique for measuring spin-lattice (T₁) relaxation times. In this technique the intensity of the water proton NMR resonance is measured as a function of a variable delay time between radiofrequency pulses during which the spin system relaxes toward equilibrium. The final data, which consisted of peak intensities versus delay time, was plotted and fitted to an exponential function. The characteristic time for spin magnetization to reestablish itself (T₁) is obtained from the time constant of the fitted exponential function. The value for T₁ for the complex of Example 1 was 244 mS. This compares favorably to a value of 422 mS for a Gd-DTPA, and 540 mS for Gd-DOTA when the experiment was repeated using these complexes. (The Gd-DTPA and Gd-DOTA are known commercial MRI agents.)

[2] = Biodistribution of Gd-DOTMP complex in a rat: Gd in femur by inductively coupled plasma spectroscopy; assay type: in vivo, Sprague Dawley rat
Procedure: A 150 g Sprague Dawley rat was injected with 6-100 µL portions of the Gd-DOTMP, prepared in Example 4, over a 4 day period. This rat was then sacrificed and one of its femur bones was removed and found to weigh 0.690 g. This bone was dissolved in 5 mL of concentrated HCl and analyzed for Gd by inductively coupled plasma spectroscopy. The amount of Gd found in the femur bone was 16.76 µg, which corresponds to 419 µg in the total rat skeleton, assuming the femur is 1/25th of the total skeleton. This corresponds to 25.5% of the injected dose going to the bone. That result compares favorably with similar work done with radioactive tracer ¹⁵³Sm where at these high levels of injected doses about 25-30% of the injected dose localizes in the bone. Thus the behavior of Sm-DOTMP and Gd-DOTMP are very similar in vivo.

[3] = Quantitative biodistribution of 159Gd tracer formulation in rat (NaI scintillation counting of tissues); assay type: in vivo, Sprague Dawley rat; conditions: 100 µL via tail vein, 2 hours after injection, ligand to metal molar ratio 1.5, 0.32 mg/mL
Excerpt: Quantitative biodistributions were obtained by injecting 50-100 microliters of the composition into the rail vein of unanesthetized male Sprague Dawley rats. The rats were then placed in cages lined with absorbent paper in order to collect all urine excreted prior to sacrifice. After a given period of time, the rats were sacrificed by cervical dislocation and the various tissues dissected. The samples were then rinsed with saline, blotted dry on absorbent paper and weighed. The radioactivity in the samples was measured with a NaI scintillation counter.
A 1.45 mg sample of DOTMP, prepared by the procedure of Example B, was placed in a vial and dissolved in 760 µL of water and 5 µL of 50% (wt/wt) of NaOH. A volume of 1000 µL of Gd solution (0.3 mM Gd in O.1N HCl), which contained tracer quantities of ¹⁵⁹Gd, was placed in a separate vial and 15 µL of the DOTMP solution was added. The pH of the solution was adjusted to 7 to 8 using NaOH. The amount of Gd as a complex was determined to be > 99% by cation exchange chromatography. This formulation has a ligand to metal molar ratio of 1.5.
A Sprague Dawley rat was injected with the above prepared formulation and the biodistribution determined. The rat was allowed to acclimate for five days then injected with 100 µL of the Gd solution described above via a tail vein. The rat weighed between 150 and 200 g at the time of injection. After 2 hours the rat was killed by cervical dislocation. Tissues were taken, weighed and the amount of radioactivity in each tissue was determined by counting in a NaI scintillation counter coupled to a multichannel analyzer. The counts in each tissue were compared to the counts in 100 µL standards in order to determine the percentage of the injected dose in each tissue or organ. The ligand (DOTMP) to metal (Gd) molar ratio = 1.5.

O=C([O-])CN1CCN(CC(=O)[O-])CCN(CC(=O)O)CCN(CC(=O)[O-])CC1.[Gd+3] [Gd-DOTA]
T₁ (spin-lattice relaxation time of water protons) [1]: 540 mS

O=C([O-])CN(CCN(CC(=O)[O-])CC(=O)O)CCN(CC(=O)[O-])CC(=O)O.[Gd+3] [Gd-DTPA]
T₁ (spin-lattice relaxation time of water protons) [1]: 422 mS

Gd-DOTMP [Example 1]
T₁ (spin-lattice relaxation time of water protons) [1]: 244 mS
amount of Gd found in the femur bone ([2]; 150 g rat, 6-100 µL portions over a 4 day period, femur 0.690 g, ICP): 16.76 µg
% of the injected dose going to the bone ([2]; 150 g rat, 6-100 µL portions over a 4 day period, from femur Gd): 25.5%
Gd in the total rat skeleton ([2]; assuming the femur is 1/25th of the total skeleton): 419 µg

¹⁵⁹Gd-DOTMP [Ho-DOTMP]
% OF INJECTED DOSE (159Gd) in Blood [3]: 0.08%
% OF INJECTED DOSE (159Gd) in Bone [3]: 50%
% OF INJECTED DOSE (159Gd) in Kidney [3]: 0.25%
% OF INJECTED DOSE (159Gd) in Liver [3]: 0.08%
